Measured values: patent US6416991B1, “Human cyclic nucleotide PDES” (Incyte Genomics, Inc., priority 1999, dated 2002)

Tests used:
HSPDE10A1 [1] = target: T1, HSPDE10A1 (Homo sapiens, UniProt Q9HCR9); experiment: HSPDE10A1 enzyme kinetics (Km, Vmax) with cAMP and cGMP as substrates; conditions: substrate 0.15-10 μM, Michaelis-Menten plot
HSPDE10A1 [2] = target: T1, HSPDE10A1; experiment: Inhibition of HSPDE10A1 PDE activity, scintillation proximity assay with cGMP as substrate
PDE4 = conditions: read-out: Selective for PDE type (IC50): PDE4; cited from earlier work
PDEs (non-selective) = conditions: range observed for other PDEs; read-out: Selective for PDE type (IC50): non-selective; cited from earlier work
PDE3 = conditions: read-out: Selective for PDE type (IC50): PDE3; cited from earlier work

T1 sequence (Q9HCR9 445-933): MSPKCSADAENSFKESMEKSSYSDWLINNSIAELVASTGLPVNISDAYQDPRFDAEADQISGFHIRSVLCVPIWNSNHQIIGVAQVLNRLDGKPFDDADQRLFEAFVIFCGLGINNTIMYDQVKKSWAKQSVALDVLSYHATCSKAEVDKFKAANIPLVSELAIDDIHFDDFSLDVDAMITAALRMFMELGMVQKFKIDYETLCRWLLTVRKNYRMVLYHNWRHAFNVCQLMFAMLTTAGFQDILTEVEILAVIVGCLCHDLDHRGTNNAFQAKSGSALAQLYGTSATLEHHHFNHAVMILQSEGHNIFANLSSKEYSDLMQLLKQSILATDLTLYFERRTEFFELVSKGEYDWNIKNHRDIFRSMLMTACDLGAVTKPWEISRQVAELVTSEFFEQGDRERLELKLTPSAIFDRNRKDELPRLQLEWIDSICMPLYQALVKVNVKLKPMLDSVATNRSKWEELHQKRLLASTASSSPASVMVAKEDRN

Nc1nc2c(ncn2[C@@H]2O[C@@H]3COP(=O)(O)O[C@H]3[C@H]2O)c(=O)[nH]1 [cGMP]
Km (HSPDE10A1 [1]; read-out: Km for HSPDE10A1): 0.52 µM | Vmax (rate of hydrolysis by HSPDE10A1) (HSPDE10A1 [1]): 0.21 μmole/min/ml enzyme

COc1ccc(C2CNC(=O)C2)cc1OC1CCCC1 (centres unmarked) [Rolipram]
IC50 (HSPDE10A1 [2]): 160 µM | IC50 (PDE4): […]

CC(C)Cn1c(=O)n(C)c(=O)c2[nH]cnc21 [IBMX, 3-isobutyl1-methylxanthine]
IC50 (HSPDE10A1 [2]): 40 µM | IC50 (PDEs (non-selective)): 2 to 50 µM

Cc1[nH]c(=O)c(C#N)cc1-c1ccncc1 [Milrinone]
IC50 (HSPDE10A1 [2]): > 200 µM | IC50 (PDE3): 1 µM
